Experiments:
[1] = target: T1, c-Myc protein (Homo sapiens, UniProt P01106); assay: Ability of compounds to degrade c-Myc protein in HL60 cells (ELISA); assay type: cell-based; conditions: HL-60, 1 μM compound, 24 h, read-out: HL60 cells Protein degradation rate (1 μM)
T1 construct: endogenous in cells; host or cells: HL60 cells

[2] = test system: HL60 cells; assay: Anti-proliferation ability of compounds on HL60 cells (CTG); assay type: cell-based, human; conditions: Homo sapiens, HL-60, 72 h, 3 days, CellTiter-Glo, read-out: HL60 cells Proliferation inhibitory activity
How it was run: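 Proliferation inhibition IC50 derived from CellTiter-Glo luminescence after 3-day compound treatment of HL60 cells plated at 20000 per well, against 0.1% DMSO controls.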

T1 sequence (P01106 whole entry): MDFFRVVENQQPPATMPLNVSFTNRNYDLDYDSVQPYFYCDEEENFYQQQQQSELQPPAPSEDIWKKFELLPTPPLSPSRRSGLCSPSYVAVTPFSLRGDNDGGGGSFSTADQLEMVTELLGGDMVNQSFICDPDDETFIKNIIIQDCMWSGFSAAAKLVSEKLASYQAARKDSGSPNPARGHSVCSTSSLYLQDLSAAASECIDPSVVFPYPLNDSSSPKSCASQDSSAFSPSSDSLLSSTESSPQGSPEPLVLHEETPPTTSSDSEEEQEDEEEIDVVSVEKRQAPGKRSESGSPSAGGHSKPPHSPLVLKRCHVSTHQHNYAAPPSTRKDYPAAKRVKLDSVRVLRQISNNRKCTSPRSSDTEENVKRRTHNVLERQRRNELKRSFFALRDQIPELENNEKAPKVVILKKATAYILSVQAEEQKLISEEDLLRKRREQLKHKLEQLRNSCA

Structure (SMILES)	inhibition at 1 µM [1]	IC50 [2]
COc1cccc(CC(=O)NCc2ccc(CNC(=O)c3ccc4c(c3)C(=O)N(C3CCC(=O)NC3=O)C4=O)cc2)c1OC (centres unmarked) [A56]	60 to 90%	666 ± 60.2 nM
O=C1CCC(N2C(=O)c3ccc(C(=O)NCc4ccc(CN(CCn5c6ccccc6c6cccnc65)c5ccccc5)cc4)cc3C2=O)C(=O)N1 (centres unmarked) [A95]	60 to 90%	43.6 ± 44 nM
O=C1CCC(N2C(=O)c3ccc(C(=O)NCc4ccc(NC(=O)Cc5cccc6ccccc56)cc4)cc3C2=O)C(=O)N1 (centres unmarked) [A44]	30 to 60%	5400 ± 683 nM
O=C(Cc1cccc2ccccc12)NCc1ccc(CCNC(=O)c2ccc3c(c2)C(=O)N(C2CCC(=O)NC2=O)C3=O)cc1 (centres unmarked) [A42]	60 to 90%	3640 ± 895 nM
O=C(Cc1cccc2ccccc12)NCCCCCCCCNc1ccc2c(c1)C(=O)N(C1CCC(=O)NC1=O)C2=O (centres unmarked) [A15]	60 to 90%	16.3 ± 3.3 nM
O=C(Cc1ccccc1Cl)NCc1ccc(CNC(=O)c2ccc3c(c2)C(=O)N(C2CCC(=O)NC2=O)C3=O)cc1 (centres unmarked) [A57]	60 to 90%	214 ± 4.7 nM
O=C1CCC(N2C(=O)c3ccc(C(=O)NCCCCCCNC(=O)NC4c5ccccc5-c5ccccc54)cc3C2=O)C(=O)N1 (centres unmarked) [A10]	10 to 30%	1213 ± 4 nM
Cc1ccccc1CC(=O)NCc1ccc(CNC(=O)c2ccc3c(c2)C(=O)N(C2CCC(=O)NC2=O)C3=O)cc1 (centres unmarked) [A68]	60 to 90%	1000 ± 480 nM
O=C1CCC(N2C(=O)c3ccc(C(=O)NCc4ccc(CNC(=O)Nc5cccc6ccccc56)cc4)cc3C2=O)C(=O)N1 (centres unmarked) [A45]	60 to 90%	61.6 ± 21 nM
O=C(Cn1c2ccccc2c2cccnc21)NCc1ccc(C(=O)NCc2ccc3c(c2)C(=O)N(C2CCC(=O)NC2=O)C3=O)cc1 (centres unmarked) [A178]	60 to 90%	16.9 nM
O=C(Cn1c2ccccc2c2cccnc21)NCc1ccc(CNC(=O)c2ccc3c(c2)C(=O)N(C2CCC(=O)NC2=O)C3=O)c(C(F)(F)F)c1 (centres unmarked) [A118]	60 to 90%	18.2 ± 11.4 nM
COc1cccc(CC(=O)NCc2ccc(CNC(=O)c3ccc4c(c3)C(=O)N(C3CCC(=O)NC3=O)C4=O)cc2)c1 (centres unmarked) [A55]	60 to 90%	181 ± 32.8 nM
CN(CCn1c2ccccc2c2cccnc21)C1(c2ccc(CNC(=O)c3ccc4c(c3)C(=O)N(C3CCC(=O)NC3=O)C4=O)cc2)CC1 (centres unmarked) [A144]	60 to 90%	18.4 ± 7.4 nM
COc1ccccc1CC(=O)NCc1ccc(CNC(=O)c2ccc3c(c2)C(=O)N(C2CCC(=O)NC2=O)C3=O)cc1 (centres unmarked) [A54]	60 to 90%	2330 ± 518 nM
CC(C)N(CCn1c2ccccc2c2cccnc21)Cc1ccc(CNC(=O)c2ccc3c(c2)C(=O)N(C2CCC(=O)NC2=O)C3=O)cc1 (centres unmarked) [A86]	60 to 90%	24.4 ± 10.4 nM
O=C(Cn1c2ccccc2c2cccnc21)NCc1ccc(CNC(=O)c2ccc3c(c2)C(=O)N(C2CCC(=O)NC2=O)C3=O)cc1 (centres unmarked) [A30]	60 to 90%	18 ± 11.5 nM
O=C1CCC(N2C(=O)c3ccc(C(=O)NCc4ccc(CN(CCc5cccc6ccccc56)Cc5ccccc5)cc4)cc3C2=O)C(=O)N1 (centres unmarked) [A96]	60 to 90%	960 ± 121 nM
O=C(Cn1c2ccccc2c2cccnc21)NCCCCCCCCOc1ccc2c(c1)C(=O)N(C1CCC(=O)NC1=O)C2=O (centres unmarked) [A18]	30 to 60%	1220 ± 217 nM
O=C(Cc1cccc2ccccc12)NCc1ccc(C2(NC(=O)c3ccc4c(c3)C(=O)N(C3CCC(=O)NC3=O)C4=O)CC2)cc1 (centres unmarked) [A137]	60 to 90%	239 ± 35 nM
N#CCCN(CCn1c2ccccc2c2cccnc21)Cc1ccc(CNC(=O)c2ccc3c(c2)C(=O)N(C2CCC(=O)NC2=O)C3=O)cc1 (centres unmarked) [A93]	60 to 90%	171 ± 60.4 nM
O=C1CCC(N2C(=O)c3ccc(CNCc4ccc(C(=O)NCCn5c6ccccc6c6cccnc65)cc4)cc3C2=O)C(=O)N1 (centres unmarked) [A180]	60 to 90%	133 ± 48.4 nM
CC(C)(C(=O)NCc1ccc(CNC(=O)c2ccc3c(c2)C(=O)N(C2CCC(=O)NC2=O)C3=O)cc1)n1c2ccccc2c2cccnc21 (centres unmarked) [A32]	60 to 90%	433 ± 166 nM
O=C1CCC(N2C(=O)c3ccc(C(=O)NCc4ccc(CN(CCn5c6ccccc6c6cccnc65)Cc5ccccc5)cc4)cc3C2=O)C(=O)N1 (centres unmarked) [A97]	60 to 90%	169 ± 50.7 nM

Stronger by IC50 [2], values ahead:

inhibition at 1 µM [1]	IC50 [2]	Structure (SMILES)
30 to 60%	0.6 ± 0.1 nM	NCC(=O)OCN1C(=O)CCC(N2Cc3cc(C(=O)NCc4ccc(CNC(=O)Cn5c6ccccc6c6cccnc65)cc4)ccc3C2=O)C1=O (centres unmarked) [A227]
60 to 90%	6.1 ± 0.9 nM	O=C1CCC(N2C(=O)c3ccc(C(=O)NCc4ccc(C5(NC(=O)Cn6c7ccccc7c7cccnc76)CC5)cc4)cc3C2=O)C(=O)N1 (centres unmarked) [A142]
60 to 90%	7.2 ± 1 nM	CC(C)(NC(=O)Cn1c2ccccc2c2cccnc21)c1ccc(CNC(=O)c2ccc3c(c2)C(=O)N(C2CCC(=O)NC2=O)C3=O)cc1 (centres unmarked) [A150]
60 to 90%	0.6 ± 0.1 nM	O=C(Cc1cccc2ccccc12)NCc1ccc(CNCc2ccc3c(c2)CN(C2CCC(=O)NC2=O)C3=O)cc1 (centres unmarked) [A193]
60 to 90%	0.14 ± 0.01 nM	O=C(Cn1c2ccccc2c2cccnc21)NCc1ccc(CNCc2ccc3c(c2)CN(C2CCC(=O)NC2=O)C3=O)cc1 (centres unmarked) [A194]
60 to 90%	10.9 ± 4.8 nM	O=C(Cc1c(F)ccc2ccccc12)NCc1ccc(CNC(=O)c2ccc3c(c2)C(=O)N(C2CCC(=O)NC2=O)C3=O)cc1 (centres unmarked) [A35]
60 to 90%	2.1 ± 0.6 nM	O=C(Cn1c2ccccc2c2cccnc21)NCc1ccc(CNCc2ccc3c(c2)C(=O)N(C2CCC(=O)NC2=O)C3=O)cc1 (centres unmarked) [A176]
60 to 90%	11.5 nM	CC(C)N(CCc1cccc(Cl)c1Cl)Cc1ccc(CNC(=O)c2ccc3c(c2)C(=O)N(C2CCC(=O)NC2=O)C3=O)cc1 (centres unmarked) [A87]
60 to 90%	4.7 ± 2.3 nM	CN(CCn1c2ccccc2c2cccnc21)Cc1ccc(CNC(=O)c2ccc3c(c2)C(=O)N(C2CCC(=O)NC2=O)C3=O)cn1 (centres unmarked) [A130]
60 to 90%	0.9 ± 0.1 nM	O=C(Cc1c(F)ccc2ccccc12)NCc1ccc(CNC(=O)c2ccc3c(c2)CN(C2CCC(=O)NC2=O)C3=O)c(C(F)(F)F)c1 (centres unmarked) [A161]
60 to 90%	5.5 ± 4.2 nM	CN(CCc1cccc2ccccc12)Cc1ccc(CNC(=O)c2ccc3c(c2)C(=O)N(C2CCC(=O)NC2=O)C3=O)cc1F (centres unmarked) [A109]
60 to 90%	9.5 nM	O=C(Cc1cccc2ccccc12)NCc1ccc(C(=O)NCc2ccc3c(c2)C(=O)N(C2CCC(=O)NC2=O)C3=O)cc1 (centres unmarked) [A177]
30 to 60%	3.3 ± 0.3 nM	O=C(Cc1nccc2ccccc12)NCc1ccc(CNC(=O)c2ccc3c(c2)CN(C2CCC(=O)NC2=O)C3=O)c(F)c1 (centres unmarked) [A158]
60 to 90%	2.6 ± 0.7 nM	CN(CCn1c2ccccc2c2cccnc21)Cc1ccc(CC(=O)Nc2ccc3c(c2)C(=O)N(C2CCC(=O)NC2=O)C3=O)cc1 (centres unmarked) [A168]
60 to 90%	2.5 ± 0.7 nM	O=C(Cn1c2ccccc2c2cccnc21)NCc1ccc(CNC(=O)c2ccc3c(c2)C(=O)N(C2CCC(=O)NC2=O)C3=O)c(F)c1 (centres unmarked) [A104]
60 to 90%	< 3 nM	O=C(Cc1cccc2cccnc12)NCc1ccc(CC(=O)Nc2ccc3c(c2)CN(C2CCC(=O)NC2=O)C3=O)cc1 (centres unmarked) [A173]
60 to 90%	14 ± 4.1 nM	O=C1CCC(N2C(=O)c3ccc(CNCc4ccc(C(=O)NCCc5cccc6ccccc56)cc4)cc3C2=O)C(=O)N1 (centres unmarked) [A179]

Source: patent US20240350643A1, “PROTEIN DEGRADATION AGENT” (SUZHOU KINTOR PHARMACEUTICALS, INC., priority 2021, published 2024)
